In brackets after ≈: the same amount, converted by molar mass. Activity calls are given as the source filed them. The rule behind the calls is not given here.
Legend:
Relaxin receptor 1 = target: T1, Relaxin receptor 1 (Homo sapiens, UniProt Q9HBX9); assay type: functional, cell-based, HEK293
T1 sequence (Q9HBX9 whole entry): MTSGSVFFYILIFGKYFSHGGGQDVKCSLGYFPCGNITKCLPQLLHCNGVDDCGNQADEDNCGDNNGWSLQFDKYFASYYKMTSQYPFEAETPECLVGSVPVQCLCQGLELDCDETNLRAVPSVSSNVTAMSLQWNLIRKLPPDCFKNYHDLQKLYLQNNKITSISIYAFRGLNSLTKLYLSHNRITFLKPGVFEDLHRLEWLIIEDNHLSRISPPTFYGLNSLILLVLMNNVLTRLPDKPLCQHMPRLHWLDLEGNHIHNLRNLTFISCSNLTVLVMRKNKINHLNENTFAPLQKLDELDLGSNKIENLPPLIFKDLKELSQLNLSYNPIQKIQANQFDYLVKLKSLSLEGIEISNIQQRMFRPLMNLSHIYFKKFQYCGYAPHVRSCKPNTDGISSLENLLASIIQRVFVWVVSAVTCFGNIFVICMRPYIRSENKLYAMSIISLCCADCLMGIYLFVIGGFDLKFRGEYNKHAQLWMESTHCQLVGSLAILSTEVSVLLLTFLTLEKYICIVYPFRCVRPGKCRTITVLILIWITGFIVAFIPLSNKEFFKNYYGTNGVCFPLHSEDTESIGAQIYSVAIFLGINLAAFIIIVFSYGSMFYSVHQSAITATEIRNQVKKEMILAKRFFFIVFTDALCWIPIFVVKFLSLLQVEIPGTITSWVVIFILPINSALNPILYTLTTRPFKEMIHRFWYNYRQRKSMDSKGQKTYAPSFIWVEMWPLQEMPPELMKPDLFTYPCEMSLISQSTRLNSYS

[1] = target: T2, Relaxin receptor 1 (Homo sapiens) (UniProt Q9HBX9); assay type: functional, cell-based; conditions: HEK293
T2 sequence (whole entry): T1 sequence (Q9HBX9 whole entry)

[2] = Aqueous kinetic solubility of the compound in PBS by shake-flask method; assay type: physicochemical; conditions: for solubility kinetic: PBS, read-out: Kinetic_solubility
[3] = rat, microsomes
Description: Half life in rat liver microsomes

[4] = Metabolic stability in mouse liver microsomes assessed as parent compound remaining after 60 mins; assay type: ADME, microsome; conditions: read-out: Stability
HEK293 = assay: Cytotoxicity against HEK293 cells assessed as reduction in cell viability by measuring ATP level by ATPlite assay; assay type: cell-based; conditions: Homo sapiens

| Structure (SMILES) | EC50 (Relaxin receptor 1; read-out: EC50) [µM] | Efficacy [1] | further results |
| --- | --- | --- | --- |
| O=C(Nc1ccccc1C(=O)Nc1cccc(C(F)(F)F)c1)c1ccccc1 | 1.32 | 64% | – |
| O=C(Nc1cccc(C(F)(F)F)c1)c1ccccc1NC(=O)C1CC1 | 8.38 | 79% | – |
| CCOc1ccccc1C(=O)Nc1ncccc1C(=O)Nc1cccc(S(=O)(=O)C(F)(F)F)c1 | 1.67 | 98% | solubility kinetic [2]: < 1000 µM; t1/2 [3]: 19.85 min |
| CCOc1ccccc1C(=O)Nc1sccc1C(=O)Nc1cccc(S(=O)(=O)C(F)(F)F)c1 | 2.36 | 95% | – |
| O=C(Nc1ccc(C(F)(F)F)cc1)c1ccccc1NC(=O)C1CCCCC1 | 94 | 46% | – |
| CN(C)CCOc1ccccc1C(=O)Nc1ccccc1C(=O)Nc1cccc(C(F)(F)F)c1 | 3.74 | 92% | – |
| O=C(Nc1ccccc1C(=O)Nc1cccc(C(F)(F)F)c1)c1ccccc1Cl | 3.74 | 92% | – |
| CSc1cccc(NC(=O)c2ccccc2NC(=O)C2CCCCC2)c1 | 5.29 | 84% | – |
| O=C(Nc1cccc(C(F)(F)F)c1)c1ccccc1NC(=O)c1ccccc1OC(F)(F)F | 1.18 | 96% | – |
| O=C(Nc1ccccc1C(=O)Nc1cccc(C(F)(F)F)c1)c1cccnc1 | 5.93 | 95% | – |
| O=C(Nc1cccc(C(F)(F)F)c1)c1ccccc1NC(=O)C1CCCCC1 | 1.88 | 92% | remaining at 1 h [4]: 70% |
| COc1cccc(C(=O)Nc2ccccc2C(=O)Nc2cccc(C(F)(F)F)c2)c1 | 1.88 | 94% | – |
| O=C(Nc1cccc(C(F)(F)F)c1)c1ccccc1NC(=O)C1CCCCCC1 | 2.11 | 75% | – |
| O=C(Nc1cccc(F)c1)c1ccccc1NC(=O)C1CCCCC1 | 13.3 | 81% | – |
| COCCNc1ccccc1C(=O)Nc1cccc(C(F)(F)F)c1 | 59.3 | 63% | – |
| CCC(CC)C(=O)Nc1ccccc1C(=O)Nc1cccc(C(F)(F)F)c1 | 5.29 | 59% | – |
| O=C(Nc1cccc(SC(F)(F)F)c1)c1ccccc1NC(=O)C1CCCCC1 | 1.88 | 90% | – |
| O=C(Nc1cccc(-c2cccc(C(F)(F)F)c2)c1)c1ccccc1NC(=O)C1CCCCC1 | – | inactive | EC50 (Relaxin receptor 1; hek293): Not Active |
| COc1ccccc1C(=O)Nc1cccc(C(=O)Nc2cccc(C(F)(F)F)c2)c1 | – | inactive | EC50 (Relaxin receptor 1; hek293): Not Active |
| O=C(Nc1cccc(Br)c1)c1ccccc1NC(=O)C1CCCCC1 | 2.65 | 91% | – |
| CCOc1ccccc1C(=O)Nc1ccccc1C(=O)Nc1cccc(S(=O)(=O)C(F)(F)F)c1 | – | – | t1/2 [3]: > 30 min |
| COc1ccc(C(=O)Nc2ccccc2C(=O)Nc2cccc(C(F)(F)F)c2)cc1 | 9.4 | 71% | – |
| CCOc1ccccc1C(=O)Nc1cccnc1C(=O)Nc1cccc(S(=O)(=O)C(F)(F)F)c1 | 4.71 | 73% | solubility kinetic [2]: < 1000 µM; t1/2 [3]: > 30 min |
| O=C(Nc1cccc([N+](=O)[O-])c1)c1ccccc1NC(=O)C1CCCCC1 | 5.93 | 93% | – |
| O=C(Nc1cccc(S(=O)(=O)C(F)(F)F)c1)c1ccccc1NC(=O)c1ccccc1OCC(F)(F)F | 0.067 | 97% | t1/2 [3]: > 30 min |
| O=C(Nc1cccc(S(=O)(=O)C(F)(F)F)c1)c1ccccc1NC(=O)C1CCCCC1 | 1.06 | 87% | – |
| O=C(Nc1ccccc1C(=O)Nc1ccccc1C(=O)NCc1ccco1)c1ccco1 | – | – | remaining at 1 h [4]: 2%; Kinetic_solubility ([2]; buffer): 3.7 µM |
| O=C(Nc1cccc(C(F)(F)F)c1)c1ccccc1NC(=O)C1CCCC1 | 2.36 | 88% | – |

| Structure (SMILES) | EC50 (Relaxin receptor 1; read-out: EC50) [µM] | Efficacy [1] | further results |
| --- | --- | --- | --- |
| CCCCC(=O)Nc1ccccc1C(=O)Nc1cccc(C(F)(F)F)c1 | 5.29 | 94% | – |
| O=C(NCc1ccco1)c1ccccc1NC(=O)c1ccccc1NC(=O)C1CCCCC1 | 9.4 | 45% | – |
| CCOc1ccccc1C(=O)Nc1ccncc1C(=O)Nc1cccc(S(=O)(=O)C(F)(F)F)c1 | 0.747 | 97% | t1/2 [3]: > 30 min |
| O=C(Cc1ccccc1)Nc1ccccc1C(=O)Nc1cccc(C(F)(F)F)c1 | 8.38 | 86% | – |
| CCOc1ccccc1C(=O)Nc1cnccc1C(=O)Nc1cccc(S(=O)(=O)C(F)(F)F)c1 | 2.97 | 99% | solubility kinetic [2]: < 1000 µM |
| CC(C)Oc1ccccc1C(=O)Nc1ccccc1C(=O)Nc1cccc(C(F)(F)F)c1 | 0.471 | 99% | – |
| O=C(Nc1ccccc1)c1ccccc1NC(=O)C1CCCCC1 | 94 | 57% | – |
| O=C(NCc1cccc(C(F)(F)F)c1)c1ccccc1NC(=O)C1CCCCC1 | – | inactive | EC50 (Relaxin receptor 1; hek293): Not Active |
| COc1cccc(OC)c1C(=O)Nc1ccccc1C(=O)Nc1cccc(C(F)(F)F)c1 | 7.47 | 42% | – |
| CCCOc1ccccc1C(=O)Nc1ccccc1C(=O)Nc1cccc(S(=O)(=O)C(F)(F)F)c1 | 0.052 | 98% | EC50 (HEK293): 9.4 µM; solubility kinetic [2]: 17 µM (≈ 8.61 µg/mL); t1/2 [3]: 26.8 min |
| Cc1ccc(NC(=O)c2ccccc2NC(=O)C2CCCCC2)cc1 | 187 | 32% | – |
| Cc1ccccc1C(=O)Nc1ccccc1C(=O)Nc1cccc(C(F)(F)F)c1 | 4.2 | 90% | – |
| COc1ccccc1C(=O)Nc1ccccc1C(=O)Nc1cccc(S(=O)(=O)C(F)(F)F)c1 | 0.188 | 99% | t1/2 [3]: > 30 min |
| O=C(Nc1cccc(-c2ccccc2)c1)c1ccccc1NC(=O)C1CCCCC1 | – | inactive | EC50 (Relaxin receptor 1; hek293): Not Active |
| COCCOc1ccccc1C(=O)Nc1ccccc1C(=O)Nc1cccc(C(F)(F)F)c1 | 0.747 | 98% | – |
| O=C(Nc1cccc(C(F)(F)F)c1)c1ccccc1NC(=O)C1CCC1 | 2.97 | 75% | – |
| O=C(Nc1cccc(-c2ccccc2C(F)(F)F)c1)c1ccccc1NC(=O)C1CCCCC1 | 2.65 | 74% | – |
| CCOc1ccccc1S(=O)(=O)Nc1ccccc1C(=O)Nc1cccc(S(=O)(=O)C(F)(F)F)c1 | – | inactive | EC50 (Relaxin receptor 1; hek293): Not Active |
| CCOc1ccccc1C(=O)Nc1ccccc1C(=O)Nc1cccc(C(F)(F)F)c1 | 0.265 | 94% | – |
| CC(C)(C)c1cccc(NC(=O)c2ccccc2NC(=O)C2CCCCC2)c1 | 2.66 | 70% | – |
| CCCCOc1ccccc1C(=O)Nc1ccccc1C(=O)Nc1cccc(S(=O)(=O)C(F)(F)F)c1 | 0.047 | 98% | solubility kinetic [2]: 5.3 µM (≈ 2.76 µg/mL); t1/2 [3]: 19.5 min |
| COc1ccccc1C(=O)Nc1ccccc1C(=O)N(C)c1cccc(C(F)(F)F)c1 | 29.7 | 77% | – |
| COc1ccccc1C(=O)Nc1ccccc1C(=O)Nc1cccc(C(F)(F)F)c1 | 0.334 | 99% | – |
| COc1ccccc1C(=O)N(C)c1ccccc1C(=O)Nc1cccc(C(F)(F)F)c1 | – | inactive | EC50 (Relaxin receptor 1; hek293): Not Active |
| Cc1ccccc1NC(=O)c1ccccc1NC(=O)C1CCCCC1 | – | inactive | EC50 (Relaxin receptor 1; hek293): Not Active |
| COc1cccc(NC(=O)c2ccccc2NC(=O)C2CCCCC2)c1 | 37.4 | 74% | – |
| O=C(Nc1cccc(Cl)c1)c1ccccc1NC(=O)C1CCCCC1 | 3.34 | 89% | – |

From ChEMBL document CHEMBL4152336, “Optimization of the first small-molecule relaxin/insulin-like family peptide receptor (RXFP1) agonists: Activation results in an antifibrotic gene expression profile” (Eur J Med Chem, 2018)
